Results taken from patent US20240208970A1, “SUBSTITUTED HYDANTOIN COMPOUNDS, METHODS FOR PREPARATION THEREOF AND USE THEREOF IN THE TREATMENT AND/OR PREVENTION OF A CORONA VIRUS DISEASE” (priority 2021, published 2024).

What was measured:
[1] = biological target: SARS-CoV-2 M^pro protease (Severe acute respiratory syndrome coronavirus 2 (2019-nCoV) (SARS-CoV-2), UniProt P0DTD1); test: biochemical; format: biochemical; conditions: M^pro 75 nM, substrate 10 μM
[2] = biological target: M^pro (Severe acute respiratory syndrome coronavirus 2 (2019-nCoV) (SARS-CoV-2), UniProt P0DTD1); format: binding; conditions: steady-state analysis, 25° C.

O=C1NC2(CC(c3ccccc3Cl)C2)C(=O)N1c1cncc2cccnc12 (stereo not shown) [Compound 50, 2-(2-chlorophenyl)-7-(1,6-naphthyridin-8-yl)-5,7-diazaspiro[3.4]octane-6,8-dione]
IC50 ([1]; Tables 5B-5E): 105 nM
Kd [2]: 28 nM

O=C1NC2(CC(n3cccn3)C2)C(=O)N1c1cncc2ccccc12 (stereo not shown) [Compound 46, 7-(isoquinolin-4-yl)-2-(1H-pyrazol-1-yl)-5,7-diazaspiro[3.4]octane-6,8-dione]
Kd [2]: 930 nM

CC(C)c1ccncc1N1C(=O)NC2(CC(c3ccccc3Cl)C2)C1=O (stereo not shown) [Compound 63, 2-(2-chlorophenyl)-7-(4-isopropylpyridin-3-yl)-5,7-diazaspiro[3.4]octane-6,8-dione]
Kd [2]: 89 nM

O=C1NC2(CC(c3ccccc3Cl)C2)C(=O)N1c1cncc2c(F)c(F)c(F)cc12 (single isomer, unassigned) [Compound 59, 2-(2-chlorophenyl)-7-(6,7,8-trifluoroisoquinolin-4-yl)-5,7-diazaspiro[3.4]octane-6,8-dione]
IC50 ([1]; Tables 5B-5E): 6600 nM
Kd [2]: 250 nM

O=C1NC2(CC(C3CCC3)C2)C(=O)N1c1cncc(F)c1 (stereo not shown) [Compound 13, 2-cyclobutyl-7-(5-fluoropyridin-3-yl)-5,7-diazaspiro[3.4]octane-6,8-dione]
IC50 ([1]; Table 5A): 6700 nM
Kd [2]: 66000 ± 14000 nM

O=C1NC2(CC(c3ccccc3Cl)C2)C(=O)N1c1cncc2cnccc12 (stereo not shown) [Compound 51, 2-(2-chlorophenyl)-7-(2,7-naphthyridin-4-yl)-5,7-diazaspiro[3.4]octane-6,8-dione]
IC50 ([1]; Tables 5B-5E): 141 nM
Kd [2]: 29 nM

CN(C)c1cncc(N2C(=O)NC3(CC(c4ccccc4Cl)C3)C2=O)c1 (stereo not shown) [Compound 65, 2-(2-chlorophenyl)-7-(5-(dimethylamino)pyridin-3-yl)-5,7-diazaspiro[3.4]octane-6,8-dione]
Kd [2]: 790 nM

O=C1NC2(CC(c3ccccc3Cl)C2)C(=O)N1c1cncc2cccc(F)c12 (stereo not shown) [Compound 53, 2-(2-chlorophenyl)-7-(5-fluoroisoquinolin-4-yl)-5,7-diazaspiro[3.4]octane-6,8-dione]
IC50 ([1]; Tables 5B-5E): 253 nM
Kd [2]: 42 nM

O=C1NC2(CC(c3ccccc3Cl)C2)C(=O)N1c1cncnc1 (stereo not shown) [Compound 66, 2-(2-chlorophenyl)-7-(pyrimidin-5-yl)-5,7-diazaspiro[3.4]octane-6,8-dione]
Kd [2]: 691 nM

O=C1NC2(CC(c3ccccc3Cl)C2)C(=O)N1c1cncc2c(F)c(F)c(F)cc12 (single isomer, unassigned) [Compound 60, 2-(2-chlorophenyl)-7-(6,7,8-trifluoroisoquinolin-4-yl)-5,7-diazaspiro[3.4]octane-6,8-dione]
IC50 ([1]; Tables 5B-5E): 1370 nM
Kd [2]: 364 nM

O=C1NC2(CC(c3ccccc3Cl)C2)C(=O)N1c1cncc2nccnc12 (stereo not shown) [Compound 52, 2-(2-chlorophenyl)-7-(pyrido[3,4-b]pyrazin-8-yl)-5,7-diazaspiro[3.4]octane-6,8-dione]
IC50 ([1]; Tables 5B-5E): 394 nM
Kd [2]: 134 nM

O=C1NC2(CC(c3ccccc3Cl)C2)C(=O)N1c1cccnc1F (stereo not shown) [Compound 62, 2-(2-chlorophenyl)-7-(2-fluoropyridin-3-yl)-5,7-diazaspiro[3.4]octane-6,8-dione]
IC50 ([1]; Tables 5B-5E): 201 nM
Kd [2]: 36 nM

O=C1N(c2cncc3ccccc23)C(=O)C2(CC(C3CCC3)C2)N1Cc1ncc[nH]1 (stereo not shown) [Compound 77, 5-((1H-imidazol-2-yl)methyl)-2-cyclobutyl-7-(isoquinolin-4-yl)-5,7-diazaspiro[3.4]octane-6,8-dione]
IC50 ([1]; Tables 5B-5E): 2520 nM

CC(=O)N1C(=O)N(c2cncc3ccccc23)C(=O)C12CC(C1CCC1)C2 (stereo not shown) [Compound 79, 5-acetyl-2-cyclobutyl-7-(isoquinolin-4-yl)-5,7-diazaspiro[3.4]octane-6,8-dione]
IC50 ([1]; Tables 5B-5E): 3080 nM

Cc1c(Br)cncc1N1C(=O)NC2(CC(C3CCC3)C2)C1=O (stereo not shown) [Compound 6, 7-(5-bromo-4-methylpyridin-3-yl)-2-cyclobutyl-5,7-diazaspiro[3.4]octane-6,8-dione]
IC50 ([1]; Table 5A): 2000 nM

Cc1c(Br)cncc1N1C(=O)NC2(CC(c3ccccc3)C2)C1=O (stereo not shown) [Compound 7, 7-(5-bromo-4-methylpyridin-3-yl)-2-phenyl-5,7-diazaspiro[3.4]octane-6,8-dione]
IC50 ([1]; Table 5A): 2000 nM

NC(=O)CN1C(=O)N(c2cncc3ccccc23)C(=O)C12CC(C1CCC1)C2 (stereo not shown) [Compound 70, 2-(2-cyclobutyl-7-(isoquinolin-4-yl)-6,8-dioxo-5,7-diazaspiro[3.4]octan-5-yl)acetamide]
IC50 ([1]; Tables 5B-5E): 944 nM
